Test results published in patent US20100210597A1, “C21-Deoxy Ansamycin Derivatives as Antitumor Agents” (priority 2007, published 2010).

Experiment: Whole blood cleavage assay, human blood
Assay type: in vitro ADME
Conditions: 10 uM, 37° C., two hours
Description: Human whole blood (single donor, batch HBE4534) was obtained from First Link UK Ltd. Mouse whole blood (pool of 10, batch 07-2470) was obtained from Harlan UK. Blood was collected into tubes containing EDTA as anticoagulant and shipped on ice. Blood was used on the day of arrival. In the case of human whole blood incubations were undertaken both on the fresh blood and also after freezing the blood followed by thawing. Control compounds were Lidocaine, Bisacodyl and Simvastatin.
All test compounds were incubated at 10 uM in whole blood at 37° C. At selected time points, 0.1 ml of blood was mixed with 0.3 ml of acetonitrile and vortexed immediately. All samples were centrifuged and supernatant were diluted with same volume of deionized water. […] For 20 sample analysis, mass spectrometry monitored both 17 and 20. […]
The Half life, for the disappearance of 20, was determined according to the relationship: […]
Blood cleavage assays were run to confirm that 20 acts as a prodrug and cleaves to produce compound 17 when incubated with human and mouse blood, as described in the general methods. The compound was incubated in human or mouse blood with samples removed over two hours, and analysed by LC MS/MS for presence of 20 and 17 (see FIG. 6). […] Due to the differing responses of 17 and 20 on mass spectrometry it was not possible to quantify the extent of conversion of 20 to 17.

In the case of `CO[C@H]1C[C@H](C)Cc2cc(cc(OP(=O)(O)O)c2)NC(=O)/C(C)=C/CC[C@H](C)[C@@H](OC(N)=O)/C(C)=C/[C@H](C)[C@H]1O` [Compound 20, 4,5-dihydro-11-O-demethyl-15-demethoxy-18,21-didehydro-21-deoxomacbecin-18-phosphate], the conversion in blood was “act as a prodrug and release 17”.
